In patent US20140336216A1, “PHYSIOLOGICAL LIGANDS FOR GPR139” (Janssen Pharmaceutica NV, priority 2013, published 2014):
pEC50: −log10 of the molar value. Values joined by “and” are separate entries in the source; they are usually repeats but may differ in a detail not shown here. Equal entries are not always repeated.

Columns and labels:
GPR139 [1] = target: T1, GPR139 (Homo sapiens, UniProt Q6DWJ6); assay: Calcium mobilization assay (FLIPR), GPR139 expressed in HEK293 cells; type: cell-based; set-up: expressed in transfected cells; host or cells: HEK293 (transient); conditions: for pEC50: GPR139 expressing HEK293 cells, read-out: EC50 (half maximal effective concentration), calcium mobilization; for Stimulation of calcium mobilization: human GPR139 transiently expressed in HEK293 cells, FIG. 3
T1 sequence (Q6DWJ6 1-353): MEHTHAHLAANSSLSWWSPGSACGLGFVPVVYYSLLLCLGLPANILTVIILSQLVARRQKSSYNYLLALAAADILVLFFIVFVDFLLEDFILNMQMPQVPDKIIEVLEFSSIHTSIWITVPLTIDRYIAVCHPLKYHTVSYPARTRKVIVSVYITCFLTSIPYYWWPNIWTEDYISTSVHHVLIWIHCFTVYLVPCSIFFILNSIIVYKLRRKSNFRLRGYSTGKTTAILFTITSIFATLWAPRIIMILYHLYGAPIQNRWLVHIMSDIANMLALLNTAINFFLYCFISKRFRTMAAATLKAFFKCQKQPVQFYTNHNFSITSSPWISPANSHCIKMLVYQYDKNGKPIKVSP
Method: FIG. 3A and FIG. 3B: Provides the results of experiments conducted to determine whether Trp and its derivatives (FIG. 3A) and Phe and its derivatives (FIG. 3B) stimulate Ca^2+ mobilization in HEK293 cells expressing GPR139.
The active compounds were also tested in a calcium mobilization assay (FLIPR® assay). For these experiments human GPR139 was transiently expressed in HEK293 cells and calcium mobilization was stimulated using L-Trp, L-Phe or their derivatives. […] The concentrations of L-Trp and L-Phe in many cell culture media (for instance DMEM is about 80 μM and 750 μM respectively) are close to the EC50 values of L-Trp and L-Phe for GPR139. […] This may explain why GPR139 appeared constitutively active when recombinantly expressed in mammalian cells.
About 300 additional phenylalanine analogues have been tested for GPR139 activation using a calcium mobilization (FLIPR®) assay. The results of these experiments indicate that many of these analogues can also activate GPR139. Table 4 lists certain phenylalanine analogues that have been determined to activate GPR139 by calcium mobilization at a concentration of 300 μM (calcium mobilization is expressed as percentage of that observed for L-phenylalanine).

mouse GPR139 = target: T2, mouse GPR139 (Mus musculus, UniProt Q80UC8); assay: GTPγS binding dose response study, mouse GPR139 co-transfected with GO2Q into COS7 cells; type: biochemical; conditions: mouse GPR139, FIG. 2C and 2D
T2 construct: expressed in transfected cells; host or cells: COS7 (membranes)
T2 sequence (Q80UC8 1-345): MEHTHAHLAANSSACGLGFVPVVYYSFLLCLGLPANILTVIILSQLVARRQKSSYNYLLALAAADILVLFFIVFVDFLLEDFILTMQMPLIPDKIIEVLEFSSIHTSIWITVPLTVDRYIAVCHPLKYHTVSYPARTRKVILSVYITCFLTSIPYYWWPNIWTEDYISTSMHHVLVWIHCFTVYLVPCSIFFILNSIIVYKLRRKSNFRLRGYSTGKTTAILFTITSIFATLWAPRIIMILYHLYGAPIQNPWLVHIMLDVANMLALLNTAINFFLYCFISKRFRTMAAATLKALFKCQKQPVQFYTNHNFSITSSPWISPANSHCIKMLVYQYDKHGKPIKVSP
Text: (§1) FIG. 2-FIG. 2F: Tryptophan, phenylalanine, and their derivatives activate GPR139. Human (FIG. 2A and FIG. 2B) or mouse (FIG. 2C and FIG. 2D) GPR139 were co-transfected with chimeric G-protein GO2Q into COS7 cells. Cell membranes from transfected cells were used in GTPγS binding studies using various ligands at different concentrations to stimulate GPR139. FIG. 2E and FIG. 2F show control experiments in the dose response studies of Example 1.

[2] = system: GPR21, GPR52, GPCR119, GPCR132, GPCR134, or GPR182; assay: GTPγS binding assay, control membranes co-expressing GO2Q and other GPCRs (data not shown); type: biochemical
Method: (§2) To test for compounds that activate GPR139, different amino acids and their derivatives (Table 2) were tested as ligands in the GTPγS binding assay using cell membranes from COS7 cells co-expressing GPR139 and GO2Q. Cell membrane from COS7 cells expressing GO2Q alone or co-expressing other GPCRs were also tested in GTPγS binding assay in parallel as controls. Each compound was tested in triplicate.

GO2Q alone = assay: GTPγS binding assay, control COS7 membranes expressing GO2Q alone (Ct-GO2Q); type: biochemical; conditions: for Activation levels (GTPγS binding), Ct-GO2Q: 1 mM final concentration, COS7 membranes expressing GO2Q alone, single wells of triplicate; for Activation of membranes from cells expressing GO2Q alone: same assay, 1 mM
Method: (§3) In order identify the ligands for GPR139 two improvements in the detection assay were made to allow for the ligands to be detected. First, we chose to use a GTPγS binding assay instead of using live cultured cells. The GTPγS binding assay is a cell free system that uses the cell membrane of the cell(s) of interest rather than the live cell(s). One advantage of this assay is that potential ligands present in the cell culture media are washed away when the cell membrane is prepared. This reduces the basal level of signal and increase the chance of detecting receptor ligands when assessing compounds that activate the receptor. Second, a GO2Q chimeric G-protein was created to be co-expressed with GPR139 in order to increase the signal-to-noise ratio in the GTPγS binding assay. Historically, the Gi, Go coupled GPCRs offer much greater signal-to-noise ratio in GTPγS binding studies. For Gs and Gq coupled GPCRs, although ligand-stimulated specific signals can be detected in a GTPγS binding assay, the signal-to-noise ratios are often very small. To address this a chimeric GO2-Gq chimeric G-protein, GO2Q, with the N-terminus from Go2 protein and the C-terminus from Gq protein.
as §2

GPR139 [3] = target: T1, GPR139; assay: GTPγS binding dose response study, human GPR139 co-transfected with GO2Q into COS7 cells; type: biochemical; set-up: expressed in transfected cells; host or cells: COS7 (membranes); conditions: human GPR139, FIG. 2A and 2B
Text: as §1

GPR139 [4] = target: T1, GPR139; assay: GTPγS binding assay, single-concentration screen, COS7 membranes co-expressing GPR139 and GO2Q; type: biochemical; set-up: expressed in transfected cells; host or cells: COS7 (membranes); conditions: for Activation of GPR139 in the GTPγS binding assay: 1 mM; for Activation levels of GPR139 (GTPγS binding), GPR139-GO2Q: 1 mM final concentration, COS7 membranes co-expressing GPR139 and GO2Q, single wells of triplicate
Method: as §3, §2

[5] = target: T3, N-terminally V-tagged mouse GPR139 (Mus musculus, UniProt Q80UC8); assay: GPR139 internalization in transiently transfected HEK-293 cells; type: cell-based; conditions: FIG. 4
T3 construct: V tag (printed 'V-tagged' and 'VS-tagged'); expressed in transfected cells; host or cells: HEK-293 (transient)
T3 sequence (Q80UC8 1-345): T2 sequence (Q80UC8 1-345)
Text: Many GPCRs are internalize by the cell when they are activated.

**Q.** With `N[C@@H](Cc1c[nH]c2ccccc12)C(=O)O` [Trp, L-tryptophan] as the compound, how does the pEC50 (GPR139 [1]) read?
**A.** 3.70 to 4.00

**Q.** What about the “Stimulation of calcium mobilization” value (GPR139 [1]) of the same compound?
**A.** specifically stimulate calcium mobilization

**Q.** And the “Dose-responsive activation of GPR139 (GTPγS binding)” value (“Dose-responsive activation of GPR139” for short) (mouse GPR139)?
**A.** specifically activate GPR139 in a dose-responsive manner

**Q.** And the “Activation of membranes from cells co-expressing GO2Q and other GPCRs” value [2]?
**A.** did not activate

**Q.** What about the “Activation levels (GTPγS binding), Ct-GO2Q” value (GO2Q alone) of the same compound?
**A.** 2172 and 2234 and 2272

**Q.** What about the “Activation of membranes from cells expressing GO2Q alone” value (GO2Q alone) of the same compound?
**A.** did not activate

**Q.** What about the “Dose-responsive activation of GPR139” value (GPR139 [3]) of the same compound?
**A.** specifically activate GPR139 in a dose-responsive manner

**Q.** And the “Activation of GPR139 in the GTPγS binding assay” value (GPR139 [4])?
**A.** able to activate GPR139

**Q.** And the “Activation levels of GPR139 (GTPγS binding), GPR139-GO2Q” value (GPR139 [4])?
**A.** 8141 and 9121 and 9149

**Q.** And the “Internalization of tagged GPR139 upon stimulation” value [5]?
**A.** internalized

**Q.** `N[C@@H](Cc1ccccc1)C(=O)O` [Phe, L-phenylalanine] was tested. Which pEC50 (GPR139 [1]) did it give?
**A.** 3.70 to 4.00

**Q.** And the “Stimulation of calcium mobilization” value (GPR139 [1])?
**A.** specifically stimulate calcium mobilization

**Q.** What about the “Dose-responsive activation of GPR139” value (mouse GPR139) of the same compound?
**A.** specifically activate GPR139 in a dose-responsive manner

**Q.** And the “Activation of membranes from cells co-expressing GO2Q and other GPCRs” value [2]?
**A.** did not activate

**Q.** What about the “Activation levels (GTPγS binding), Ct-GO2Q” value (GO2Q alone) of the same compound?
**A.** 2190 and 2215 and 2345

**Q.** What about the “Activation of membranes from cells expressing GO2Q alone” value (GO2Q alone) of the same compound?
**A.** did not activate

**Q.** And the “Dose-responsive activation of GPR139” value (GPR139 [3])?
**A.** specifically activate GPR139 in a dose-responsive manner

**Q.** And the “Activation of GPR139 in the GTPγS binding assay” value (GPR139 [4])?
**A.** able to activate GPR139

**Q.** And the “Activation levels of GPR139 (GTPγS binding), GPR139-GO2Q” value (GPR139 [4])?
**A.** 8697 and 6925 and 8417

**Q.** What about the “Internalization of tagged GPR139 upon stimulation” value [5] of the same compound?
**A.** internalized
